Data from patent publication US20240293559A1, “SHP2 inhibitor, pharmaceutical composition containing the same and application thereof” (BEIJING TIDE PHARMACEUTICAL CO., LTD., priority 2021, published 2024).

Biological target: T1, SHP2 (Homo sapiens, UniProt Q06124)
T1 construct: endogenous in cells; host or cells: MV 411
T1 sequence (Q06124 1-593): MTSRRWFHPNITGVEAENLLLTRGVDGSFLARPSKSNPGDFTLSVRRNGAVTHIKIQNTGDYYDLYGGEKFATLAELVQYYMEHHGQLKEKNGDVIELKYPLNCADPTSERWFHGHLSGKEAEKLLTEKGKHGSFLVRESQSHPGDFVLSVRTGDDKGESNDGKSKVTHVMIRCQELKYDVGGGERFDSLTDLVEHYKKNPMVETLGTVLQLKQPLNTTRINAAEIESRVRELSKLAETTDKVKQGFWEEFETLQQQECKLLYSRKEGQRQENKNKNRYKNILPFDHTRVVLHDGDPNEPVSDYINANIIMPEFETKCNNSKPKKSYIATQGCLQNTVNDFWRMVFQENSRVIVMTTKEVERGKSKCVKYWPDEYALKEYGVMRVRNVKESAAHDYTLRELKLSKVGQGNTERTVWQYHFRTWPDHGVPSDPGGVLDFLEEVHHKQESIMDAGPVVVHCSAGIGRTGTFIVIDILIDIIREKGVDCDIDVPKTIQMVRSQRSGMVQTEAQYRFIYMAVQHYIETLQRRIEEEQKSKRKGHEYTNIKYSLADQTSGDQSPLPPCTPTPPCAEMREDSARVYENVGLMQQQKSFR
Assay: SHP2 degradation in MV 411 cells by Western blot (median degradation concentration)
Assay type: cell-based
Details: 24 hours with compound, SHP-2 antibody Western blot, concentration of the median degradation from exposure gray scale
Text: Reagent: complete DMEM medium, Gibco products. Fetal bovine serum, manufactured byThermoFisher. Trypsin, manufactured byThermoFisher. The SHP-2 antibody is produced by CST. Cell line, MV 411, the blast cells of patients with bi-phenotypic B-myelomonocytic leukemia, was established by Rovera. Measuring method: took the cells growing in the logarithmic phase, collected and suspended the cells in DMEM containing 10% fetal calf serum, gently blowed and beated the cells into single cell suspension by using a pipette, and counted the living cells under a microscope. […] Then cultured for 24 hours. All cells were collected and washed with PBS, lysed with RIPA lysate and collected into a 1.7 ml tube. […] metal bath for 5 minutes to fully denature the protein. 100V constant voltage electrophoresis after Western condensation and loading, stopped when bromophenol blue band reached the end point. The cellulose acetate membrane is transferred by a wet method, 45 minutes at a constant flow of 300-500 mA, 5% BSA is used for blocking for 1-2 hours at room temperature. Primary antibody of 1:500-1:8000 were used for incubation at 25° C. for 40 minutes and then washed three times. Secondary antibody was used for incubation for 15-40 min at room temperature. The proteins were detected using ultrasensitive ECL luminophores such as […], using an X-Ray film automatic developing machine. The concentration of the median degradation was calculated by exposure gray scale.

SMILES	DC50 [nM]
CCOc1cc2oc(-c3ccc(NCCOCCOCCOCCOc4cccc5c4C(=O)N(C4CCC(=O)NC4=O)C5=O)cc3Cl)cc(=O)c2cc1-c1cccc(CO)c1 (stereo not drawn) [Compound 11]	50
CCOc1cc2oc(-c3ccc(NCCOCCOCCOCCOc4cccc5c4C(=O)N(C4CCC(=O)NC4=O)C5=O)cc3Cl)cc(=O)c2cc1-c1ccc2c(c1)CCC2 (stereo not drawn) [Compound 12]	920
CCOc1cc2oc(-c3ccc(NCCOCCOCCOCCOc4cccc5c4C(=O)N(C4CCC(=O)NC4=O)C5=O)cc3Cl)cc(=O)c2cc1-c1cc(C=O)ccc1F (stereo not drawn) [Compound 13]	50
CCOc1cc2oc(-c3ccc(NCCOCCOCCOCCOc4cccc5c4C(=O)N(C4CCC(=O)NC4=O)C5=O)cc3Cl)cc(=O)c2cc1-c1cccc(C(C)=O)c1 (stereo not drawn) [Compound 14]	25
CCOc1cc2oc(-c3ccc(NCCOCCOCCOCCOc4cccc5c4C(=O)N(C4CCC(=O)NC4=O)C5=O)cc3Cl)cc(=O)c2cc1-c1ccc(OC)cc1F (stereo not drawn) [Compound 15]	250
CCOc1cc2oc(-c3ccc(NCCOCCOCCOCCOc4cccc5c4C(=O)N(C4CCC(=O)NC4=O)C5=O)cc3Cl)cc(=O)c2cc1-c1cccc(C(N)=O)c1 (stereo not drawn) [Compound 16]	250
CCOc1cc2oc(-c3ccc(NCCOCCOCCOCCOc4cccc5c4C(=O)N(C4CCC(=O)NC4=O)C5=O)cc3Cl)cc(=O)c2cc1-c1cc(F)cc(C=O)c1 (stereo not drawn) [Compound 17]	250
CCOc1cc2oc(-c3ccc(NCCOCCOCCOCCOc4cccc5c4C(=O)N(C4CCC(=O)NC4=O)C5=O)cc3Cl)cc(=O)c2cc1-c1cccc(C=O)c1 (stereo not drawn) [Compound 18]	> 1000
CCOc1cc2oc(-c3ccc(OCCOCCOCCOCCOc4cccc5c4C(=O)N(C4CCC(=O)NC4=O)C5=O)cc3Cl)cc(=O)c2cc1-c1cccc(N)c1 (stereo not drawn) [Compound 26]	3500
CCOc1cc2oc(-c3ccc(OCCOCCOCCOCCOc4cccc5c4C(=O)N(C4CCC(=O)NC4=O)C5=O)cc3Cl)cc(=O)c2cc1-c1cccc(C(=O)OC)c1F (stereo not drawn) [Compound 27]	2
CCOc1cc2oc(-c3ccc(OCCOCCOCCOCCOc4cccc5c4C(=O)N(C4CCC(=O)NC4=O)C5=O)cc3Cl)cc(=O)c2cc1-c1ccc(S(C)(=O)=O)cc1F (stereo not drawn) [Compound 28]	110
CCOc1cc2oc(-c3ccc(OCCOCCOCCOCCOc4cccc5c4C(=O)N(C4CCC(=O)NC4=O)C5=O)cc3Cl)cc(=O)c2cc1-c1cncc(C=O)c1 (stereo not drawn) [Compound 29]	15
CCOc1cc2oc(-c3ccc(OCCOCCOCCOCCOc4cccc5c4C(=O)N(C4CCC(=O)NC4=O)C5=O)cc3Cl)cc(=O)c2cc1-c1cc(N)cc(C(=O)O)c1 (stereo not drawn) [Compound 30]	2000
CCOc1cc2oc(-c3ccc(OCCOCCOCCOCCOc4cccc5c4C(=O)N(C4CCC(=O)NC4=O)C5=O)cc3Cl)cc(=O)c2cc1-c1ccc2c(c1)COC2=O (stereo not drawn) [Compound 31]	300
CCOc1cc2oc(-c3ccc(OCCOCCOCCOCCOc4cccc5c4C(=O)N(C4CCC(=O)NC4=O)C5=O)cc3Cl)cc(=O)c2cc1-c1cc(N)cc(C(N)=O)c1 (stereo not drawn) [Compound 32]	850
CCOc1cc2oc(-c3ccc(OCCOCCOCCOCCOc4cccc5c4C(=O)N(C4CCC(=O)NC4=O)C5=O)cc3Cl)cc(=O)c2cc1-c1ccc(S(=O)(=O)N2CCOCC2)cc1F (stereo not drawn) [Compound 33]	3500
CCOc1cc2oc(-c3ccc(OCCOCCOCCOCCOc4cccc5c4C(=O)N(C4CCC(=O)NC4=O)C5=O)cc3Cl)cc(=O)c2cc1-c1ccc(S(=O)(=O)N2CCOCC2)cc1 (stereo not drawn) [Compound 34]	42
CCOc1cc2oc(-c3ccc(OCCOCCOCCOCCOc4ccc5c(c4)C(=O)N(C4CCC(=O)NC4=O)C5=O)cc3Cl)cc(=O)c2cc1-c1cc(C(C)=O)cc(C(N)=O)c1 (stereo not drawn) [Compound 35]	25

SMILES	DC50 [nM]
CCOc1cc2oc(-c3ccc(NCCOCCOCCOCCOc4ccc5c(c4)C(=O)N(C4CCC(=O)NC4=O)C5=O)cc3Cl)cc(=O)c2cc1-c1cccc(C(C)=O)c1 (stereo not drawn) [Compound 36]	20
CCOc1cc2oc(-c3ccc(OCCOCCOCCOCCOc4cccc5c4C(=O)N(C4CCC(=O)NC4=O)C5=O)cc3Cl)cc(=O)c2cc1-c1cc(N)cc(C(=O)OC)c1 (stereo not drawn) [Compound 40]	750
CCOC(=O)c1cncc(-c2cc3c(=O)cc(-c4ccc(OCCOCCOCCOCCOc5cccc6c5C(=O)N(C5CCC(=O)NC5=O)C6=O)cc4Cl)oc3cc2OCC)c1 (stereo not drawn) [Compound 41]	1000
CCOc1cc2oc(-c3ccc(OCCOCCOCCOCCOc4cccc5c4C(=O)N(C4CCC(=O)NC4=O)C5=O)cc3Cl)cc(=O)c2cc1-c1cc(C)cc(C(N)=O)c1 (stereo not drawn) [Compound 42]	750
CCOc1cc2oc(-c3ccc(OCCOCCOCCOCCOc4cccc5c4C(=O)N(C4CCC(=O)NC4=O)C5=O)cc3Cl)cc(=O)c2cc1-c1cc(C(N)=O)cc(C(C)(C)C)c1 (stereo not drawn) [Compound 43]	> 250
CCOc1cc2oc(-c3ccc(OCCOCCOCCOCCOc4cccc5c4C(=O)N(C4CCC(=O)NC4=O)C5=O)cc3Cl)cc(=O)c2cc1-c1cc(C(N)=O)cc(C(F)(F)F)c1 (stereo not drawn) [Compound 44]	750
CCOc1cc2oc(-c3ccc(OCCOCCOCCOCCOc4cccc5c4C(=O)N(C4CCC(=O)NC4=O)C5=O)cc3Cl)cc(=O)c2cc1-c1ccccc1C(N)=O (stereo not drawn) [Compound 45]	> 250
CCOc1cc2oc(-c3ccc(OCCOCCOCCOCCOc4cccc5c4C(=O)N(C4CCC(=O)NC4=O)C5=O)cc3Cl)cc(=O)c2cc1-c1cc(C(N)=O)ccc1O (stereo not drawn) [Compound 46]	6
CCOc1cc2oc(-c3ccc(NCCOCCOCCOCCOc4cccc5c4C(=O)N(C4CCC(=O)NC4=O)C5=O)cc3Cl)cc(=O)c2cc1CN1CCC=C(n2c(=O)[nH]c3cc(NS(=O)(=O)C4CC4)ccc32)C1 (stereo not drawn) [Compound 50]	> 750
CCOc1cc2oc(-c3ccc(NCCOCCOCCOCCOc4cccc5c4C(=O)N(C4CCC(=O)NC4=O)C5=O)cc3Cl)cc(=O)c2cc1CN1CCCC[C@@H]1C(N)=O (stereo partly drawn) [Compound 51]	> 250
CCOc1cc2oc(-c3ccc(NCCOCCOCCOCCOc4cccc5c4C(=O)N(C4CCC(=O)NC4=O)C5=O)cc3Cl)cc(=O)c2cc1COc1ccccc1C(N)=O (stereo not drawn) [Compound 52]	> 250
CCOc1cc2oc(-c3ccc(NCCOCCOCCOCCOc4cccc5c4C(=O)N(C4CCC(=O)NC4=O)C5=O)cc3Cl)cc(=O)c2cc1CN1CCC[C@@H]1CO (stereo partly drawn) [Compound 53]	5
CCOc1cc2oc(-c3ccc(OCCOCCOCCOCCOc4cccc5c4C(=O)N(C4CCC(=O)NC4=O)C5=O)cc3Cl)cc(=O)c2cc1-c1cc(C(N)=O)cc(C2CCCCC2)c1 (stereo not drawn) [Compound 54]	> 250
CCOc1cc2oc(-c3ccc(OCCOCCOCCOCCOc4cccc5c4C(=O)N(C4CCC(=O)NC4=O)C5=O)cc3Cl)cc(=O)c2cc1-c1cc(C(N)=O)cc(-c2ccccc2)c1 (stereo not drawn) [Compound 55]	> 1000
CCOc1cc2oc(-c3ccc(OCCOCCOCCOCCOc4cccc5c4C(=O)N(C4CCC(=O)NC4=O)C5=O)cc3Cl)cc(=O)c2cc1-c1cc(C(N)=O)cc(-c2ccccn2)c1 (stereo not drawn) [Compound 56]	> 1000
CCOc1cc2oc(-c3ccc(OCCOCCOCCOCCOc4cccc5c4C(=O)N(C4CCC(=O)NC4=O)C5=O)cc3Cl)cc(=O)c2cc1-c1cc(C(N)=O)cc(-c2cccnc2)c1 (stereo not drawn) [Compound 57]	> 1000
CCOc1cc2oc(-c3ccc(OCCOCCOCCOCCOc4cccc5c4C(=O)N(C4CCC(=O)NC4=O)C5=O)cc3Cl)cc(=O)c2cc1-c1cc(C(N)=O)cc(-c2ccncc2)c1 (stereo not drawn) [Compound 58]	500
CCOc1cc2oc(-c3ccc(OCCOCCOCCOCCOc4cccc5c4C(=O)N(C4CCC(=O)NC4=O)C5=O)cc3Cl)cc(=O)c2cc1-c1cc(C(N)=O)cc(-c2ncc[nH]2)c1 (stereo not drawn) [Compound 59]	> 750
